Among the data in PubChem BioAssay AID816 (SRMLSC, 2007) are EC50 values, retold here.

Active and inactive are the calls of the source. The rule behind the calls is not given here.

Usually EC50 stands for the concentration that produces a half-maximal response.

The assay has as its system S. cerevisiae GAL1 promoter reporter activation counterscreen. As to the kind of experiment: yeast Gal1p promoter activation – S. cerevisiae, artefact control for yeast lifespan extension project (AID 816).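 Note: yeast growth read after 24 h of incubation with compounds.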
As to `Cc1ccc(N(C(=O)CS(=O)CC(=O)Nc2ccc(F)cc2)C(C(=O)NC2CCCCC2)c2ccco2)cc1` (stereo not drawn), the EC50 was > 40 µM (inactive).

Take `CCC(=O)N1CCN(CCN=CC2=C(O)CC(c3cccs3)CC2=O)CC1` (stereo not drawn): the EC50 is > 40 µM (inactive).

For the compound `C=CCn1c(C)cc(C(=O)CSc2nc3ccccc3c(=O)[nH]2)c1C`, the EC50 was > 40 µM (inactive).

As to `CCOC(=O)c1ccccc1N1C(=O)CSC1=S`, the EC50 is > 40 µM (inactive).

For the compound `CCn1c(=O)c2c(O)cc(=O)oc2c2ccccc21`, the EC50 is > 40 µM (inactive).

As for `Cc1ccc2[nH]c3c(c2c1)CC/C(=C/c1ccccc1)C3=O`, the EC50 is > 40 µM (inactive).

`CCOc1cc(Br)c(Br)c(C=Nc2ccc(NC(C)=O)cc2)c1O`: the EC50 is > 40 µM (inactive).

On to `Oc1ccc2ccccc2c1C=Nc1ccccc1-c1nc2ccccc2[nH]1`, for which the EC50 was > 40 µM (inactive).

For the compound `O=[N+]([O-])c1cc2oc3c(c2c(C=NCc2ccncc2)c1O)CCCC3`, the EC50 was > 40 µM (inactive).

As for `CCOc1ccc(C(=O)C(CN2CCOCC2)c2ccccc2)cc1` (stereo not drawn), the EC50 was > 40 µM (inactive).

In the case of `CCc1cc2c(=O)c(Oc3ccccc3)c(C)oc2cc1O`, the EC50 is > 40 µM (inactive).

As to `COCCOC(=O)/C(=C/c1ccc(OC(=O)c2ccccc2)cc1)C(C)=O`, the EC50 is > 40 µM (inactive).

On to `O=S(=O)(Nc1nc2ccccc2nc1Cl)c1ccc2ccccc2c1`, for which the EC50 is > 40 µM (inactive).

Consider `O=C(Nc1ccc(S(=O)(=O)N2CCc3ccccc3C2)cc1)c1ccccc1`, for which the EC50 was > 40 µM (inactive).

Regarding `CCCCn1c(NS(=O)(=O)c2ccc(C)cc2)c(C(=O)OCC)c2nc3ccccc3nc21`, the EC50 was > 40 µM (inactive).

Take `COCCCNC(CC(=O)Nc1ccc(OC)cc1OC)C(=O)O` (stereo not drawn): the EC50 is > 40 µM (inactive).

For `O=C1CC(c2ccc(F)cc2)CC(O)=C1C=NCCN1CCN(C(=O)Nc2ccccc2)CC1` (stereo not drawn), the EC50 is > 40 µM (inactive).

On to `CCCCN(CCCC)c1ccc(C(=O)c2ccccc2C(=O)O)c(O)c1`, for which the EC50 is > 40 µM (inactive).

Consider `CC(=O)Nc1c(O)nc(SCc2ccccc2C#N)[nH]c1=O`, for which the EC50 was > 40 µM (inactive).

In the case of `Cc1c(NC(=O)C(=O)/C=C(\O)c2ccc(Cl)cc2)c(=O)n(-c2ccccc2)n1C`, the EC50 was > 40 µM (inactive).

As for `COc1ccc(-c2cc(C(F)(F)F)nc(S(C)(=O)=O)n2)cc1`, the EC50 is > 40 µM (inactive).

For the compound `CCc1[nH]nc2c1C(c1ccc(Br)s1)C(C#N)=C(N)O2` (stereo not drawn), the EC50 was > 40 µM (inactive).

`CCCCSc1[nH]c(=O)c(C(=O)OCC)cc1C#N`: the EC50 was > 40 µM (inactive).

Take `COc1cccc(C(=O)Oc2cc(N)n(S(=O)(=O)c3ccc(C)cc3)n2)c1OC`: the EC50 was > 40 µM (inactive).

With `COc1cccc(C2CC3C(=O)C=CC2N3Cc2ccccc2)c1` (stereo not drawn), the EC50 was > 40 µM (inactive).

As to `O=C(O)CCCCCN1C(=O)/C(=C\c2ccncc2)SC1=S`, the EC50 is > 40 µM (inactive).

As to `O=C(Nc1cccnc1)c1c(O)c2cccc3c2n(c1=O)CC3`, the EC50 was > 40 µM (inactive).

With `CC(C)n1c(=O)c2c(O)cc(=O)oc2c2ccccc21`, the EC50 was > 40 µM (inactive).

With `CC1CCCN(c2nc3ccccc3nc2C(C#N)C(=O)OC2CCCCC2)C1` (stereo not drawn), the EC50 was > 40 µM (inactive).

Regarding `CC1(C)Cc2ccccc2-c2nnc(SCC(=O)Nc3ccc4c(c3)OCO4)n21`, the EC50 is > 40 µM (inactive).

Turning to `CCCC(=Nc1ccccc1OC)C1=C(O)CC(c2ccccc2)CC1=O` (stereo not drawn), the EC50 is > 40 µM (inactive).

With `COC(=O)c1cc(=O)n(-c2ccccc2)c(=Nc2ccccc2)s1`, the EC50 is > 40 µM (inactive).

Take `O=C(N/N=C/c1ccc(F)cc1)c1c(O)c2ccccc2[nH]c1=O`: the EC50 is > 40 µM (inactive).

As for `CC(C)c1ccc(C2=C(O)c3ccccc3C(=O)C2=O)cc1`, the EC50 is > 40 µM (inactive).

`COC(=O)CCS(=O)(=O)c1nc(-c2ccccc2)cc(C(F)(F)F)n1`: the EC50 was > 40 µM (inactive).

In the case of `CC(=O)N1CCN(CCN=CC2=C(O)CC(c3cccs3)CC2=O)CC1` (stereo not drawn), the EC50 was > 40 µM (inactive).

Regarding `O=Cc1cccn1-c1sc2c(c1C(=O)O)CCCC2`, the EC50 was > 40 µM (inactive).

As for `O=C(Nc1nccs1)c1ccc2c(=O)n3c(nc2c1)CCCCC3`, the EC50 was > 40 µM (inactive).

Turning to `O=C1c2ccccc2C(=O)N1OCc1ccccc1`, the EC50 was > 40 µM (inactive).

Take `O=C(NC(=S)Nc1nc2c(s1)CSc1ccccc1-2)c1ccccc1`: the EC50 is > 40 µM (inactive).

In the case of `O=C(COc1ccc2ccccc2c1)Nc1cccc(C(=O)Nc2ccccc2C(=O)O)c1`, the EC50 was > 40 µM (inactive).

For `C=CCN(CC=C)S(=O)(=O)c1ccc2nc(NC(=O)C(C)C)sc2c1`, the EC50 is > 40 µM (inactive).

Consider `O=C(Nc1cccc(Cl)c1)c1ccc2c(=O)n3c(nc2c1)CCCCC3`, for which the EC50 was > 40 µM (inactive).

As for `O=C(NC(=S)NNC(=O)c1ccccc1O)c1ccco1`, the EC50 is > 40 µM (inactive).

As for `Cc1nc2ccccc2n1-c1ccccc1`, the EC50 is > 40 µM (inactive).

In the case of `Cc1nn(C(C)(C)C)c(OC(=O)c2ccc(Br)o2)c1Sc1ccccc1`, the EC50 is > 40 µM (inactive).

For the compound `O=C(CCl)N1c2ccccc2OCC1c1ccccc1` (stereo not drawn), the EC50 is > 40 µM (inactive).

Consider `CCCNC(=O)CCC(NS(=O)(=O)c1ccc(C)cc1)C(=O)NCCC` (stereo not drawn), for which the EC50 is > 40 µM (inactive).

As to `CC1=C(C#N)C2C(/C1=N/O)C2(C)C` (stereo not drawn), the EC50 was > 40 µM (inactive).

Consider `C=C(C(=O)c1ccccc1)C(CC(=O)c1ccccc1)c1ccccc1` (stereo not drawn), for which the EC50 was > 40 µM (inactive).

Turning to `Cc1ccc(NC(=O)Nc2nc(-c3ccc(C)s3)cs2)cc1`, the EC50 was > 40 µM (inactive).

In the case of `C/C=C/Cn1c(N2CCCCCC2)nc2c1c(=O)[nH]c(=O)n2C`, the EC50 was > 40 µM (inactive).

Turning to `O=c1c(-c2ccc(Cl)cc2)[n+]([O-])c2ccccc2n1OCc1ccccn1`, the EC50 was > 40 µM (inactive).

Turning to `COc1ccc(C(=O)Nc2ccc(OCc3ccccc3)cc2)cc1[N+](=O)[O-]`, the EC50 was > 40 µM (inactive).

Take `COCCN(CCOC)S(=O)(=O)c1ccc(C(=O)Nc2sc3c(c2C(N)=O)CCCCC3)cc1`: the EC50 was > 40 µM (inactive).

As to `Cc1nn(-c2c(Cl)cc(Cl)cc2Cl)c(=O)c2ccccc12`, the EC50 is > 40 µM (inactive).

For `CCOC(=O)COc1ccccc1/C=C\[N+](=O)[O-]`, the EC50 was > 40 µM (inactive).

Consider `NC(=S)N/N=C/c1coc2cc(Cl)ccc2c1=O`, for which the EC50 was > 40 µM (inactive).

As for `O=C(Oc1cc(=O)n2ccccc2n1)c1ccccc1`, the EC50 is > 40 µM (inactive).

Take `CCCCCOC(=O)CSc1nc2c(c(=O)[nH]c(=O)n2C)n1CCc1ccccc1`: the EC50 is > 40 µM (inactive).

For the compound `CN=C(SCc1cc2c(cc1Cl)OCO2)c1c(O)n(C)c(=O)n(C)c1=O`, the EC50 was > 40 µM (inactive).

Consider `N#CSCC(=O)N1c2ccccc2CCc2ccccc21`, for which the EC50 was > 40 µM (inactive).

Consider `Cc1nc2c(=O)n(C)c(=O)n(C)c2nc1Cl`, for which the EC50 was > 40 µM (inactive).

For the compound `CSC1=NSC2=NC(=O)/C(=C\c3cccs3)C(=N)N12`, the EC50 is > 40 µM (inactive).

With `O=C(/C=C(\O)c1ccc(Cl)cc1)C(=O)NNC(=O)C(O)(c1ccccc1)c1ccccc1`, the EC50 is > 40 µM (inactive).

As for `Cc1ccc(CNc2nc3ccccc3s2)s1`, the EC50 was > 40 µM (inactive).

As for `COc1ccc(OC)c(NC(=S)N2CCN(C/C=C/c3ccccc3)CC2)c1`, the EC50 is > 40 µM (inactive).

Turning to `N#C/C(=C\c1ccccc1)C(=O)N(c1ccccn1)C1CCCCC1`, the EC50 is > 40 µM (inactive).

As to `CNC(=S)NC1CC2CCCC(C1)N2Cc1ccco1` (stereo not drawn), the EC50 is > 40 µM (inactive).

`CCOC(=O)CCS(=O)(=O)c1nc(-c2ccccc2)cc(C(F)(F)F)n1`: the EC50 is > 40 µM (inactive).

As for `O=c1cc(-c2c(F)c(F)c(F)c(F)c2F)oc2c(F)c(F)c(F)c(F)c12`, the EC50 is > 40 µM (inactive).

In the case of `COc1ccc(C(=O)C(CN2CCOCC2)c2ccccc2)cc1F` (stereo not drawn), the EC50 was > 40 µM (inactive).

`CCCCC(c1nnnn1CC1CCCO1)N1CCN(c2nc3ccccc3s2)CC1` (stereo not drawn): the EC50 is > 40 µM (inactive).

Turning to `Cc1ccc(-c2nc3ccc(Cl)cc3n2OC(=O)N(C)C)cc1`, the EC50 was > 40 µM (inactive).

Turning to `O=c1[nH]c2ccccc2nc1Cc1ccccc1`, the EC50 is > 40 µM (inactive).

For `COc1ccc(-c2cc(N)n(S(=O)(=O)c3c(F)c(F)c(F)c(F)c3F)n2)cc1OC`, the EC50 was > 40 µM (inactive).

In the case of `c1ccc(-c2c(-c3ccccc3)n(Cc3ccco3)c3ncnc(NCCCn4ccnc4)c23)cc1`, the EC50 was > 40 µM (inactive).

In the case of `CCc1nnc(NC(=O)c2cccc(S(=O)(=O)N(C)c3ccccc3)c2)s1`, the EC50 was > 40 µM (inactive).

`COc1ccc(OC)c(C2C(C(C)=O)=C(O)C(=O)N2Cc2cccnc2)c1` (stereo not drawn): the EC50 was > 40 µM (inactive).

Regarding `CN1C/C(=C/c2cccnc2)C(=O)/C(=C/c2cccnc2)C1`, the EC50 is > 40 µM (inactive).

`CC(=O)C(C(C)=O)c1c(Cl)c(O)c(O)c2c(C(=O)c3ccccc3)coc12`: the EC50 was > 40 µM (inactive).

Take `O=C1/C(=N/n2cnnc2)c2ccccc2N1Cc1ccccc1`: the EC50 is > 40 µM (inactive).

As to `CCC1CCCCN1S(=O)(=O)c1ccc(S(=O)(=O)N(Cc2cccs2)C2CC2)cc1` (stereo not drawn), the EC50 is > 40 µM (inactive).

As for `Cc1cc(C=C2C(=O)N(C)C(=S)N(C)C2=O)c(C)n1-c1cccnc1`, the EC50 is > 40 µM (inactive).

For `COc1ccc(-c2noc(CSc3nnc(-c4ccncc4)n3-c3ccc(F)cc3)n2)cc1OC`, the EC50 is > 40 µM (inactive).

Take `O=C1c2ccccc2NC(c2cnc3ccccc3n2)N1O` (stereo not drawn): the EC50 was > 40 µM (inactive).

`N#Cc1c(-c2ccccc2)c(-c2ccccc2)nn(CC(=O)NNC(=O)Nc2ccccc2)c1=O`: the EC50 is > 40 µM (inactive).

Consider `CSc1ccc(S(=O)(=O)NCc2ccc(Cl)cc2Cl)cc1`, for which the EC50 is > 40 µM (inactive).
